Tested on: Oxytricha Nova quadruplex (GGGGTTTTGGGG)2 (DNA, G4) GGGGTTTTGGGG
Test: ITC
Conditions: 10 mM sodium cacodylate, 0.5 mM EDTA, pH 7.0, 20 °C

Row | Ka (K+ 90 mM) | Ka (Na+ 100 mM) | Compound
1 | 1.15±0.08 × 10^5 M^−1 | 1.03±0.50 × 10^5 M^−1 | NC[C@@H]1O[C@H](O[C@H]2[C@@H](O)[C@H](O[C@@H]3[C@@H](O)[C@H](N)C[C@H](N)[C@H]3O[C@H]3O[C@H](CN)[C@@H](O)[C@H](O)[C@H]3N)O[C@@H]2CO)[C@H](N)[C@@H](O)[C@@H]1O
2 | 0.45±0.01 × 10^5 M^−1 |  | NC[C@@H]1O[C@H](O[C@H]2[C@@H](O)[C@H](O[C@@H]3[C@@H](O)[C@H](N)C[C@H](N)[C@H]3O[C@H]3O[C@H](CO)[C@@H](O)[C@H](O)[C@H]3N)O[C@@H]2CO)[C@H](N)[C@@H](O)[C@@H]1O
